The test concerns the target T1, human SSTR4 (Homo sapiens, UniProt P31391).
T1 construct: expressed in transfected cells; host or cells: CHO-K1
Put plainly: hSSTR4 cAMP assay (cAMP accumulation, LANCE Ultra cAMP kit, CHO-K1 human SSTR4 Gi cell line). The test is classed as cell-based. The conditions noted are these: functional agonism, forskolin 10 μM stimulated CHO-K1 human SSTR4 Gi cells, 30 min at 25° C., at least duplicate, averaged; read-out: hSSTR4 EC50. A digest of the protocol:
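CHO-K1 cells expressing human SSTR4 (Gi), pre-cultured 18-20 h or thawed and used directly, stimulated with 10 μM forskolin plus test agonist in concentration series, 30 min at 25° C. Lysate cAMP read by TR-FRET (Eu-cAMP tracer/ULight-anti-cAMP, 1 h, 25° C). Normalized to forskolin-only and forskolin+100 nM SST14 controls, 4-parameter fit; ≥duplicate, averaged.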
(Cyclic AMP is a second messenger, typically raised through Gs and lowered through Gi signalling.)

We go through two molecules from patent publication US20250368625A1, “PIPERAZINES” (Grünenthal GmbH, priority 2024, published 2025).

T1 sequence (P31391 whole entry): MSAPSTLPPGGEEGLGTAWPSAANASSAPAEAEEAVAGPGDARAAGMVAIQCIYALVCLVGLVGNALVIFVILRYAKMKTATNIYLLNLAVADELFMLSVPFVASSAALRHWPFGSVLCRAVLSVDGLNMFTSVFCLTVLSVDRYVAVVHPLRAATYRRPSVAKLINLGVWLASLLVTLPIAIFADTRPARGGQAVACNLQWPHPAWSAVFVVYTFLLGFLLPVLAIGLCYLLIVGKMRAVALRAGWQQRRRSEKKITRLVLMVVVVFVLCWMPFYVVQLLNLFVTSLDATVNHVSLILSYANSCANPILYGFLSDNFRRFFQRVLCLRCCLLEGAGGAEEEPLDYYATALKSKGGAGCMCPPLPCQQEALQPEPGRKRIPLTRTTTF

As a reminder, the EC50 is the midpoint of the concentration-response curve. On to `Cc1cc(CN2CCNC[C@H]2C(=O)NC(C)(C)c2ncc3c(C)cccn23)ccn1` [SC-091, (S)-N-(2-(8-methylimidazo[1,5-a]pyridin-3-yl)propan-2-yl)-1-((2-methylpyridin-4-yl)methyl)piperazine-2-carboxamide], for which the EC50 worked out at 0.06 nM. To `Cc1cccn2c(C(C)(C)NC(=O)[C@@H]3CNCCN3Cc3ccc(F)cc3)ncc12` [SC-027, (S)-1-(4-fluorobenzyl)-N-(2-(8-methylimidazo[1,5-a]pyridin-3-yl)propan-2-yl)piperazine-2-carboxamide] belongs 0.08 nM.
